# Measurements from patent US11618738B2, “Compound and application thereof in treating inflammation or inflammation-related diseases” (SICHUAN CENTER FOR TRANSLATIONAL MEDICINE OF TRADITIONAL …, priority 2017, dated 2023).
# Where two headings read alike, the source gives them in different places.
# Experiments:
# [1] = test system: 10% egg white-induced foot swelling in rats; test: 10% egg white-induced foot swelling in rats; assay type: in vivo; conditions: for Foot swelling: mean ± SD
# From the text: Injecting 10% egg white into rat paws can cause early acute inflammation such as redness, heat, swelling, and pain in rat paws. In this experiment, the anti-inflammatory effects of UTLOH series compounds were observed by the degree of swelling of the paws of rats after inflammation.
# SPF grade SD rats, half female and half male (100-120 g/mouse) were randomly grouped according to body weight. Each group was given the corresponding drugs by gavage, once a day, for 3 consecutive days, with a gavage volume of 1 ml/100 g. Before the experiment, the ankle joint of the right hind foot of each group of rats was marked, and the foot volume of each group of rats was measured twice with a rat foot volume meter, and the average of the two times was taken as the […]. 30 minutes after the last administration, the rats in each group were given a subcutaneous needle in the right hind paw, and injected with 10% fresh egg white solution 0.1 ml/mouse to cause inflammation, establishing a rat model of paw swelling. The post-inflamed foot volume in mice was measured twice at 1 h, 2 h, 3 h, and 4 h after inflammation, and the average of the two times was taken as the post-inflamed foot volume. The normal group was given 1 ml/100 g volume of 0.5% CMC-Na solution by gavage according to body weight.
# [2] = test system: xylene-induced ear swelling in mice; test: Xylene-induced ear swelling in mice; assay type: in vivo; conditions: for Swelling rate (%): 20 minutes after xylene, mean ± SD
# From the text: Xylene applied to the ears of mice can cause acute inflammatory swelling of the ears of the mice. The anti-inflammatory effects of the tested drugs were observed by the degree of swelling of the ears of the mice after the inflammation.
# Taking Kunming mice, SPF grade, half male and half […] (18-22 g/mouse) and randomly grouping them according to body weight. The normal control group was given 0.5% CMC-Na suspension by gavage administration, and the other groups were given corresponding drugs (0.2 ml/10 g) for 3 consecutive days, once a day. 0.5 h after the last administration, 0.02 ml of xylene was applied to the right auricle of each group of mice, and the left side was not applied as a control, establishing a mouse ear swelling model. 20 minutes after the inflammation, the mice were killed by cervical dislocation. Both ears were cut along the baseline of the auricle, and the discs on the same part of the left and right ears were punched out with a punch (6 mm of diameter) and weighed.
# NO induced by LPS = test: Inhibition of LPS-induced NO in RAW 264.7 cells (Greiss reagent); assay type: cell-based, mice; conditions: for IC50: Mus musculus, RAW264.7, RAW 264.7 cells, LPS 100 ng/mL, overnight
# From the text: Nitric oxide (NO) is a signaling molecule that plays a key role in the pathogenesis of inflammation. Under abnormal conditions, NO is a pro-inflammatory mediator that causes inflammation due to its overproduction. Therefore, the regulation of elevated NO levels by stimulants (such as LPS) has been widely used as a screening method to identify anti-inflammatory drugs. Since NO is oxidized into nitrite and nitrate, the determination of total NO2^−/NO3^− is a conventional method for determining NO levels, and Griess reagent is usually used in this type of experiment.
# (§1) This example is taken from a previous publication by Song et al.^[1]. In brief, mice RAW 264.7 cells were treated with increasing doses of each test compound at 37° C. for 1 hour. Thereafter, the cells were attacked with 20 μL/well of LPS (equivalent to a final concentration of 100 ng/mL). The cells were further incubated overnight at 37° C. A commercial ELISA assay kit obtained from R&D Systems (Minneapolis, Minn.) was used to determine the level of PGE2 in the supernatant, and three parallel experiments were performed. The optical density of each well was measured using a BioTek Epoch microplate reader (Winooski, Vt.) set to 450 nm. The NO study was performed in a similar manner, but Greiss reagent was used to monitor the level of NO, and the results were read at 550 nm.
# hot plate pain in mice = test: Hot plate pain threshold in mice; assay type: in vivo; conditions: for Percentage increase in pain threshold (%): mean ± SD
# Protocol: The hot plate method uses a certain intensity of warm heat to stimulate mice to produce pain reaction. This experiment observes the analgesic effect of UTLOH series compounds.
# Female SPF-grade Kunming mice (18-22 g/mouse) were put in a hot plate apparatus at a temperature of 55±0.5° C., and the pain threshold of the mice was measured. The measurement was performed twice, and the measurement was performed every 5 minutes. Taking the mouse licking hind feet as the observation index. The mice with pain response within 30 s were selected as experimental animals. The pre-selected qualified mice were randomly grouped according to their body weight. The blank group was intraperitoneally injected with 0.2 ml/10 g body weight of normal saline, and the other groups were intraperitoneally injected with corresponding drugs. The pain threshold was measured 30 and 60 minutes after the administration. If the mouse had no pain within 60 seconds, it was taken out immediately and calculated at 60 seconds.
# [3] = test system: writhing response of mice with acetic acid; test: Writhing response of mice induced by intraperitoneal glacial acetic acid; assay type: in vivo; conditions: for Writhing reaction inhibition percentage (%): mean ± SD
# Protocol: After glacial acetic acid is injected into the abdominal cavity of mice, it can cause inflammatory pain and cause writhing reaction in mice. In this experiment, the analgesic effects of UTLOH compounds were observed by the number of writhing times in mice after intraperitoneal injection of glacial acetic acid.
# Taking 100 KM mice, SPF grade, half male and half […] (18-22 g/mouse), and randomly grouping them according to their body weight. Except that the blank control group was given 0.5% CMC-Na suspension by gavage administration, the other groups were given the corresponding drugs by gavage for 3 continuous days, once a day, with a gavage volume of 0.2 ml/10 g. 30 minutes after the administration on the 3rd day, each group of mice was intraperitoneally injected with 0.6% glacial acetic acid, 0.1 ml/10 g, to create writhing reaction model in mice.
# PGE2 induced by LPS = test: Inhibition of LPS-induced PGE2 in RAW 264.7 cells (ELISA); assay type: cell-based, mice
# Protocol: as §1
smiles,measurement,setting,value
Cc1cc(C(=O)Nc2ccccc2O)no1 [UTLOH-4a],Foot swelling,"[1]; 10 mg/kg gavage once a day for 3 days, 1 h after inflammation",0.50 ± 0.08 mL
same,Foot swelling,"[1]; 10 mg/kg gavage once a day for 3 days, 2 h after inflammation",0.79 ± 0.07 mL
same,Foot swelling,"[1]; 10 mg/kg gavage once a day for 3 days, 3 h after inflammation",0.63 ± 0.13 mL
same,Foot swelling,"[1]; 10 mg/kg gavage once a day for 3 days, 4 h after inflammation",0.47 ± 0.13 mL
same,Foot swelling,"[1]; 20 mg/kg gavage once a day for 3 days, 1 h after inflammation",0.55 ± 0.11 mL
same,Foot swelling,"[1]; 20 mg/kg gavage once a day for 3 days, 2 h after inflammation",0.79 ± 0.14 mL
same,Foot swelling,"[1]; 20 mg/kg gavage once a day for 3 days, 3 h after inflammation",0.64 ± 0.15 mL
same,Foot swelling,"[1]; 20 mg/kg gavage once a day for 3 days, 4 h after inflammation",0.48 ± 0.12 mL
same,Foot swelling,"[1]; 40 mg/kg gavage once a day for 3 days, 1 h after inflammation",0.65 ± 0.18 mL
same,Foot swelling,"[1]; 40 mg/kg gavage once a day for 3 days, 2 h after inflammation",0.77 ± 0.11 mL
same,Foot swelling,"[1]; 40 mg/kg gavage once a day for 3 days, 3 h after inflammation",0.57 ± 0.15 mL
same,Foot swelling,"[1]; 40 mg/kg gavage once a day for 3 days, 4 h after inflammation",0.48 ± 0.12 mL
same,foot swelling compared with the normal group (in words),"[1]; low, medium- and high-dose group, 1 h after inflammation",significantly reduce
same,Swelling rate (%),[2]; 6.25 mg/kg once a day for 3 days,49.77 ± 22.15 %
same,Swelling rate (%),[2]; 12.5 mg/kg once a day for 3 days,50.59 ± 21.52 %
same,Swelling rate (%),[2]; 25 mg/kg once a day for 3 days,49.87 ± 16.44 %
same,ear swelling rate versus normal group (in words),"[2]; the three dose groups (6.25, 12.5, 25 mg/kg)",significantly lower
same,IC50,"NO induced by LPS; read-out: NO IC50 (μM), class",< 10 µM
same,IC50,"NO induced by LPS; read-out: NO IC50 (μM), value in brackets",1.4 µM
same,inhibition of LPS-induced NO compared with leflunomide and teriflunomide (in words),NO induced by LPS; compared with leflunomide and teriflunomide,more strongly
same,Percentage increase in pain threshold (%),"hot plate pain in mice; 25 mg/kg intraperitoneal, 30 min after administration",−15.08 ± 37.87%
same,Percentage increase in pain threshold (%),"hot plate pain in mice; 25 mg/kg intraperitoneal, 60 min after administration",−16.76 ± 33.81%
same,Percentage increase in pain threshold (%),"hot plate pain in mice; 50 mg/kg intraperitoneal, 30 min after administration",−6.95 ± 41.45%
same,"percentage increase in the pain threshold, hot plate (in words)","hot plate pain in mice; 100 mg/kg and 200 mg/kg, 30 and 60 minutes after administration",significantly reduce
same,Percentage increase in pain threshold (%),"hot plate pain in mice; 100 mg/kg intraperitoneal, 30 min after administration",−19.99 ± 38.23 %
same,Percentage increase in pain threshold (%),"hot plate pain in mice; 100 mg/kg intraperitoneal, 60 min after administration",−34.23 ± 39.23 %
same,Percentage increase in pain threshold (%),"hot plate pain in mice; 200 mg/kg intraperitoneal, 30 min after administration",−30.12 ± 27.69 %
same,Percentage increase in pain threshold (%),"hot plate pain in mice; 200 mg/kg intraperitoneal, 60 min after administration",−29.65 ± 24.62 %
same,Writhing reaction inhibition percentage (%),[3]; 25 mg/kg gavage once a day for 3 days,21.63 ± 29.24 %
same,Writhing reaction inhibition percentage (%),[3]; 50 mg/kg gavage once a day for 3 days,24.26 ± 10.11 %
same,Writhing reaction inhibition percentage (%),[3]; 100 mg/kg gavage once a day for 3 days,28.48 ± 15.74 %
same,Writhing reaction inhibition percentage (%),[3]; 200 mg/kg gavage once a day for 3 days,23.05 ± 10.08 %
same,writhing response in mice induced by acetic acid (in words),[3]; the four dose groups (25-200 mg/kg),significantly inhibit
same,PGE2 inhibition (%),"PGE2 induced by LPS; RAW 264.7 cells, LPS 100 ng/mL, overnight, test concentration not given",98.5%
same,inhibition on PGE2 compared to leflunomide (in words),PGE2 induced by LPS; compared to leflunomide,stronger
